Test results as given in patent publication US20260167623A1 (NIKANG THERAPEUTICS, INC., priority 2022, published 2026).

Columns and labels:
CDK2 [1] = target: T1, CDK2 (Homo sapiens, UniProt P24941); experiment: High-throughput HTRF measurement of cellular endogenous CDK2 level (degradation, DC50/Dmax) in OVCAR3 cells, 6 h; format: cell-based; conditions: 6 h compound treatment, HTRF total CDK2, read-out: DC50_OVCAR3_6h
T1 construct: High-Throughput Measurement of Cellular Endogenous CDK2; endogenous in cells; host or cells: OVCAR3
Procedure, shortened: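 DC50 and Dmax were derived by four-parameter logistic fit of the […] TR-FRET ratio, scaled between DMSO (0% degradation) and lysis buffer (100%) controls. The ratio came from an HTRF total-CDK2 sandwich immunoassay on lysates of OVCAR3 cells given 0.03–1,000 nM compound for 6 hours.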

CDK2 [2] = target: T1, CDK2; experiment: Inhibition of CDK2: phospho-Rb (S807/811) HTRF measurement in OVCAR3 cells, 24 h; format: cell-based; conditions: 24 h compound treatment, read-out: pRB_OVCAR3_24h
Procedure, shortened: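 IC50 came from a four-parameter fit of DMSO-normalized TR-FRET ratios (665/620 nm) reporting phospho-Rb S807/811. Lysates were taken from OVCAR3 cultures treated 24 h with compound (0.3 to 10,000 nM) and incubated 4 h at room temperature with the antibody pair.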

SMILES	DC50 (CDK2 [1])	IC50 (CDK2 [2])
Cn1nc(N2CCC(=O)NC2=O)c2ccc(C3CCN(CC4CCN(c5cc(F)cc(S(=O)(=O)N6CCC(Nc7ncc(OC(F)F)cn7)CC6)c5)CC4)CC3)cc21 [Example 175, 1-(6-(1-((1-(3-((4-((5-(difluoromethoxy)pyrimidin-2-yl)amino)piperidin-1-yl)sulfonyl)-5-fluorophenyl)piperidin-4-yl)methyl)piperidin-4-yl)-1-methyl-1H-indazol-3-yl)dihydropyrimidine-2,4(1H,3H)-dione]	10 to 100 nM	100 to 500 nM
Cn1nc(N2CCC(=O)NC2=O)c2ccc(C3CCN(CC4CCN(c5cccc(S(=O)(=O)N6CCC(Nc7ncc(C(F)(F)F)cn7)CC6)c5)CC4)CC3)cc21 [Example 40, 1-(1-methyl-6-(1-((1-(3-((4-((5-(trifluoro-methyl)pyrimidin-2-yl)amino)piperidin-1-yl)sulfonyl)phenyl)piperidin-4-yl)methyl)piperidin-4-yl)-1H-indazol-3-yl)dihydropyrimidine-2,4(1H,3H)-dione]	1 to 10 nM	1 to 100 nM
Cn1nc(N2CCC(=O)NC2=O)c2ccc(C3CCN(Cc4cccc(S(=O)(=O)N5CCC(Nc6ncc(OC(F)F)cn6)CC5)c4)CC3)c(F)c21 [Example 93, 1-(6-(1-(3-((4-((5-(difluoromethoxy)-pyrimidin-2-yl)amino)piperidin-1-yl)sulfonyl)benzyl)piperidin-4-yl)-7-fluoro-1-methyl-1H-indazol-3-yl)dihydropyrimidine-2,4(1H,3H)-dione]	1 to 10 nM	1 to 100 nM
O=C1CCC(N2Cc3cc(N4CCN(Cc5cccc(S(=O)(=O)N6CCC(Nc7ncc(OC(F)F)cn7)CC6)c5)CC4)c(F)cc3C2=O)C(=O)N1 (stereo not shown) [Example 74, 3-(5-(4-(3-((4-((5-(difluoromethoxy)-pyrimidin-2-yl)amino)piperidin-1-yl)sulfonyl)benzyl)piperazin-1-yl)-6-fluoro-1-oxoisoindolin-2-yl)piperidine-2,6-dione]	1 to 10 nM	100 to 500 nM

The next lines start with the values.

DC50 (CDK2 [1])	IC50 (CDK2 [2])	SMILES
1 to 10 nM	1 to 100 nM	Cn1nc(N2CCC(=O)NC2=O)c2ccc(C3CCN(CCCc4cccc(S(=O)(=O)N5CCC(Nc6ncc(C(F)(F)F)cn6)CC5)c4)CC3)cc21 [Example 87, 1-(1-methyl-6-(1-(3-(3-((4-((5-(trifluoro-methyl)pyrimidin-2-yl)amino)piperidin-1-yl)sulfonyl)phenyl)propyl)piperidin-4-yl)-1H-indazol-3-yl)dihydropyrimidine-2,4(1H,3H)-dione]
1 to 10 nM	1 to 100 nM	O=C1CCC(N2Cc3cc(C4CCN(CC5CCN(c6cccc(S(=O)(=O)N7CCC(Nc8ncc(C(F)(F)F)cn8)CC7)c6)CC5)CC4)c(F)cc3C2=O)C(=O)N1 (stereo not shown) [Example 119, 3-(6-fluoro-1-oxo-5-(1-((1-(3-((4-((5-(trifluoromethyl)pyrimidin-2-yl)amino)-piperidin-1-yl)sulfonyl)phenyl)piperidin-4-yl)methyl)piperidin-4-yl)isoindolin-2-yl)piperidine-2,6-dione]
1 to 10 nM	1 to 100 nM	CC(C)c1cnc(NC2CCN(S(=O)(=O)c3cccc(N4CCC(CN5CCC(c6ccc7c(N8CCC(=O)NC8=O)nn(C)c7c6)CC5)CC4)c3)CC2)nc1 [Example 244, 1-(6-(1-((1-(3-((4-((5-isopropylpyrimidin-2-yl)amino)piperidin-1-yl)sulfonyl)phenyl)piperidin-4-yl)methyl)piperidin-4-yl)-1-methyl-1H-indazol-3-yl)dihydropyrimidine-2,4(1H,3H)-dione]
0.5 to 1 nM	1 to 100 nM	Cn1c(=O)n(C2CCC(=O)NC2=O)c2ccc(C3CCN(CC4CCN(c5cc(S(=O)(=O)N6CCC(Nc7ncc(C(F)(F)F)cn7)CC6)ccc5C#N)CC4)CC3)cc21 (stereo not shown) [Example 205, 2-(4-((4-(1-(2,6-dioxopiperidin-3-yl)-3-methyl-2-oxo-2,3-dihydro-1H-benzo[d]imidazol-5-yl)piperidin-1-yl)methyl)piperidin-1-yl)-4-((4-((5-(trifluoromethyl)pyrimidin-2-yl)amino)piperidin-1-yl)sulfonyl)benzonitrile]
